Assay results: ChEMBL document CHEMBL5291721, “A preclinical secondary pharmacology resource illuminates target-adverse drug reaction associations of marketed drugs” (Nat Commun, 2023)

Key:
[1] = molecular target: T1, Alpha-1A adrenergic receptor (Homo sapiens, UniProt P35348); format: functional, cell-based
T1 sequence (P35348 whole entry): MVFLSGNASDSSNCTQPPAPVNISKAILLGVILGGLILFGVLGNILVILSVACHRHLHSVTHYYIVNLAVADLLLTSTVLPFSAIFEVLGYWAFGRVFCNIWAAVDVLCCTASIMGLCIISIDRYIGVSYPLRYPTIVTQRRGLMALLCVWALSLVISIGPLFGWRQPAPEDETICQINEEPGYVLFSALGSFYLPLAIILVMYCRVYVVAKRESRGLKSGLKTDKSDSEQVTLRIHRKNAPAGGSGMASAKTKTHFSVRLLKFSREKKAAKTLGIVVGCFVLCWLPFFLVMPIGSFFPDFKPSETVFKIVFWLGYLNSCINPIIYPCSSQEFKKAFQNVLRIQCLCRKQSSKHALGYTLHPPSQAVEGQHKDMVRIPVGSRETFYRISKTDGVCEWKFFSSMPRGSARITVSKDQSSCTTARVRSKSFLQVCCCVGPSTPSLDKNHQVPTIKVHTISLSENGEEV

D(1A) dopamine receptor = D(1A) dopamine receptor (Homo sapiens, UniProt P21728)
D(3) dopamine receptor = D(3) dopamine receptor (Homo sapiens, UniProt P35462)
[2] = molecular target: T2, Amine oxidase [flavin-containing] A (Homo sapiens, UniProt P21397); format: functional
T2 sequence (P21397 whole entry): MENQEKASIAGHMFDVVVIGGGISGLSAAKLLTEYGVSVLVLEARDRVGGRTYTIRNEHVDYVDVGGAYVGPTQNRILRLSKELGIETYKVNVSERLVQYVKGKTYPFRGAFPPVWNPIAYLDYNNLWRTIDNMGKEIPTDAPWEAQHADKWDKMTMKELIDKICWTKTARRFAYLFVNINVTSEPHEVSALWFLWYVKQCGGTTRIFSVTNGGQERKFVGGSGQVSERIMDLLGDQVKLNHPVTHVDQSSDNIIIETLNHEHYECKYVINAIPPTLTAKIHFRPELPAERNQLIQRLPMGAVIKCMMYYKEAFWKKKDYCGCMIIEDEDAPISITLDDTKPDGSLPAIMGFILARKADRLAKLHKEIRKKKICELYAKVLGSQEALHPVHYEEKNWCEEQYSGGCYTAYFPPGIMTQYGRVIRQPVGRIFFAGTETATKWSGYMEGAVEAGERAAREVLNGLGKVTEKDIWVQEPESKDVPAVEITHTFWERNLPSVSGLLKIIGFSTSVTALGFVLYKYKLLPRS

Mu-type opioid receptor = Mu-type opioid receptor (Homo sapiens, UniProt P35372)
[3] = molecular target: T3, Muscarinic acetylcholine receptor M2 (Homo sapiens, UniProt P08172); format: functional, cell-based
T3 sequence (P08172 whole entry): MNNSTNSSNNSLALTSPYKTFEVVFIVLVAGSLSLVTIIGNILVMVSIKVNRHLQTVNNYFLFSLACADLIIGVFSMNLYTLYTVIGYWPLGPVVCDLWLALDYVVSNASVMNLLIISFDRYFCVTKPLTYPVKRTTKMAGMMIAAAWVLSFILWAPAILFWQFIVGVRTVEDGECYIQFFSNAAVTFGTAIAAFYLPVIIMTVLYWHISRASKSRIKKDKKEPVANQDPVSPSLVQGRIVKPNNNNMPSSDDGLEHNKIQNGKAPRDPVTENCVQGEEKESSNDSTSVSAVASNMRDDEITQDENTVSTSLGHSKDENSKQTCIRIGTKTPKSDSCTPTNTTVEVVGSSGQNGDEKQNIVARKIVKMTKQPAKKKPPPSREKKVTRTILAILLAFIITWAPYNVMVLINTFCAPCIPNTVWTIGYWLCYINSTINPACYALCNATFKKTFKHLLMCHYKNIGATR

[4] = molecular target: Glutamate receptor ionotropic, NMDA 1 (Rattus norvegicus, UniProt P35439)
[5] = molecular target: Sodium-dependent dopamine transporter (Homo sapiens, UniProt Q01959)
Also: assay procedure not described here.

Sequence of Mu-type opioid receptor (P35372 whole entry): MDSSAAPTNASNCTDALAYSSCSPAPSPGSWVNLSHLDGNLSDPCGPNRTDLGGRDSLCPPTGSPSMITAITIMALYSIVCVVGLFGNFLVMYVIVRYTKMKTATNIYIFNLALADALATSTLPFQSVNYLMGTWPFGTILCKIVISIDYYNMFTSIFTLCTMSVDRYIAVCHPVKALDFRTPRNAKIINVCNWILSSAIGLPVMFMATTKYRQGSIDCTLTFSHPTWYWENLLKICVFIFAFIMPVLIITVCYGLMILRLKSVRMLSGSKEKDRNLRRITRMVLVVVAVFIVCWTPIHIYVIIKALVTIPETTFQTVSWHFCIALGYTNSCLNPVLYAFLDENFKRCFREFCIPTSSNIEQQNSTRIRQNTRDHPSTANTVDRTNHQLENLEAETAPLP
Sequence of D(3) dopamine receptor (P35462 whole entry): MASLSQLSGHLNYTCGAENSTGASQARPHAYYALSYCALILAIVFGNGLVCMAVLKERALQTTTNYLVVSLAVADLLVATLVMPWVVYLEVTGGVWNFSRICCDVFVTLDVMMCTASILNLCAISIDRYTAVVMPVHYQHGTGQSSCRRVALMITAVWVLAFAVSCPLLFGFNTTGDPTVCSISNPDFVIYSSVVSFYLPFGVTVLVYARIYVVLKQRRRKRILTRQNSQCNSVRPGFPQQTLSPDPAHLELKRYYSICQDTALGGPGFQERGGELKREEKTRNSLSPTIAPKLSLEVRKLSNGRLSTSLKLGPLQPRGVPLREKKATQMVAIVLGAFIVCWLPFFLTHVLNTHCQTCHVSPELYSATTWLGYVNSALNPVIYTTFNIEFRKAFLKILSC
Sequence of D(1A) dopamine receptor (P21728 whole entry): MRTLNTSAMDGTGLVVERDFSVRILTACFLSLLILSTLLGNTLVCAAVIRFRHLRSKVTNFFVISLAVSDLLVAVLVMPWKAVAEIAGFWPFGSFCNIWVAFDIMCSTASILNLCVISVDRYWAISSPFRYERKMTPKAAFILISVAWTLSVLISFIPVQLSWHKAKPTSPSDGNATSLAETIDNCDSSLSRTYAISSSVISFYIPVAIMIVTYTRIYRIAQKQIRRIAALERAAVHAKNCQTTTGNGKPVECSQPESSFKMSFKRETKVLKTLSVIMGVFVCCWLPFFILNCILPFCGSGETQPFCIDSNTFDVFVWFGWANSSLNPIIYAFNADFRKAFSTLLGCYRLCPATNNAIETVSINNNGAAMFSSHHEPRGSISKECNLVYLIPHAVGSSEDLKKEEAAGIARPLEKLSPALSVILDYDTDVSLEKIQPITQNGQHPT
Sequence of Sodium-dependent dopamine transporter (Q01959 whole entry): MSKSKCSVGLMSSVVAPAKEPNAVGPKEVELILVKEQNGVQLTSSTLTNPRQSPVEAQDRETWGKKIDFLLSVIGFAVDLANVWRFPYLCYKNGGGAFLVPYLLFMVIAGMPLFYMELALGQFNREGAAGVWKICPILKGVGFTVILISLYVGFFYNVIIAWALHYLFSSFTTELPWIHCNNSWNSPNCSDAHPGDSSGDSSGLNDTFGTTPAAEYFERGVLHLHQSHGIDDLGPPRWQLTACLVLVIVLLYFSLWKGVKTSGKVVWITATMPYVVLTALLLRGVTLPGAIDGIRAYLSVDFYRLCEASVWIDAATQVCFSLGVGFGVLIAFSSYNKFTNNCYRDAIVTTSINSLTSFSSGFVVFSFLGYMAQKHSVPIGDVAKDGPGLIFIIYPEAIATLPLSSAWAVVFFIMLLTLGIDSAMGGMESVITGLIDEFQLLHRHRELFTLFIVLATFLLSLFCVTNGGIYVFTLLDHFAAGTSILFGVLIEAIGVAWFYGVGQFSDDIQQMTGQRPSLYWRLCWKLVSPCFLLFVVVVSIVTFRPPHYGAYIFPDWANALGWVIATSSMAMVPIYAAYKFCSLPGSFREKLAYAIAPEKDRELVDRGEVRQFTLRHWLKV

CC1=C(C/C=C(\C)CCC[C@H](C)CCC[C@H](C)CCCC(C)C)C(=O)c2ccccc2C1=O [PHYTONADIONE]
AC50 [1]: > 30 µM | AC50 (D(1A) dopamine receptor): > 30 µM | AC50 (D(3) dopamine receptor): > 30 µM | AC50 [2]: > 30 µM | AC50 (Mu-type opioid receptor): > 30 µM

CNC1(c2ccccc2Cl)CCCCC1=O (stereo unspecified) [KETAMINE]
AC50 [1]: > 30 µM | AC50 (D(1A) dopamine receptor): > 30 µM | AC50 (D(3) dopamine receptor): > 30 µM | AC50 [2]: > 30 µM | AC50 (Mu-type opioid receptor): 7.63 µM

NC(=O)C1(N2CCCCC2)CCN(CCCC(=O)c2ccc(F)cc2)CC1 [PIPAMPERONE]
AC50 [1]: 0.398 µM | AC50 (D(1A) dopamine receptor): 0.258 µM | AC50 (D(3) dopamine receptor): 1.77 µM | AC50 [2]: > 30 µM | AC50 (Mu-type opioid receptor): 7.02 µM

CC(C)NC[C@H](O)COc1ccc(O)cc1 [PRENALTEROL]
AC50 [1]: > 30 µM | AC50 (D(1A) dopamine receptor): > 30 µM | AC50 (D(3) dopamine receptor): > 30 µM | AC50 [2]: > 30 µM | AC50 (Mu-type opioid receptor): > 30 µM

CN1CCC(N(Cc2cccs2)c2ccccc2)CC1 [THENALIDINE]
AC50 [1]: 23.5 µM | AC50 (D(1A) dopamine receptor): 11.6 µM | AC50 (D(3) dopamine receptor): 4.46 µM | AC50 [2]: > 30 µM | AC50 (Mu-type opioid receptor): 7.42 µM

Cc1cccc(C)c1NC(=O)c1cc(S(N)(=O)=O)c(Cl)cc1O [XIPAMIDE]
AC50 [1]: > 30 µM | AC50 (D(1A) dopamine receptor): > 30 µM | AC50 (D(3) dopamine receptor): > 30 µM | AC50 [2]: > 30 µM | AC50 (Mu-type opioid receptor): > 30 µM

CCCCCCO[C@@H](C)c1cccc(-c2csc(NC(=O)c3cc(Cl)c(/C=C(\C)C(=O)O)c(Cl)c3)n2)c1OC [LUSUTROMBOPAG]
AC50 [1]: 13.5 µM | AC50 (D(1A) dopamine receptor): 1.54 µM | AC50 (D(3) dopamine receptor): 8.41 µM | AC50 [2]: > 30 µM | AC50 (Mu-type opioid receptor): > 30 µM

NC(=O)C1(N2CCCCC2)CCN(CCCN2c3ccccc3CCc3ccccc32)CC1 [CARPIPRAMINE]
AC50 (D(1A) dopamine receptor): 0.0928 µM | AC50 (D(3) dopamine receptor): 0.0207 µM | AC50 [2]: > 30 µM | AC50 (Mu-type opioid receptor): 0.342 µM

C=CCOc1ccc(CC(=O)O)cc1Cl [ALCLOFENAC]
AC50 [1]: > 30 µM | AC50 (D(1A) dopamine receptor): > 30 µM | AC50 [2]: > 30 µM | AC50 (Mu-type opioid receptor): > 30 µM

OC[C@H]1NC[C@H](O)[C@@H](O)[C@H]1O
AC50 [1]: > 30 µM | AC50 (D(1A) dopamine receptor): > 30 µM | AC50 (D(3) dopamine receptor): > 30 µM | AC50 [2]: > 30 µM | AC50 (Mu-type opioid receptor): > 30 µM

Cc1ccc(C(C)C)c(O)c1 [THYMOL]
AC50 [1]: 25.8 µM | AC50 (D(1A) dopamine receptor): > 30 µM | AC50 (D(3) dopamine receptor): > 30 µM | AC50 [2]: > 30 µM | AC50 (Mu-type opioid receptor): > 30 µM

NCCCCCC(=O)O [AMINOCAPROIC ACID]
AC50 [3]: > 10 µM | AC50 [4]: > 10 µM | AC50 [5]: 12.7 µM

CC(C)NCC(O)COc1ccc(CC(N)=O)cc1 (stereo unspecified) [ATENOLOL]
AC50 [4]: > 30 µM

O=C(O)[C@@H](S)[C@@H](S)C(=O)O
AC50 (D(1A) dopamine receptor): > 30 µM | AC50 (D(3) dopamine receptor): > 30 µM | AC50 [2]: > 30 µM | AC50 (Mu-type opioid receptor): > 30 µM

Cc1cc(C)cc(OCC2CNC(=O)O2)c1 (stereo unspecified) [METAXALONE]
AC50 [1]: > 30 µM | AC50 (D(1A) dopamine receptor): > 30 µM | AC50 (D(3) dopamine receptor): > 30 µM | AC50 [2]: 15.4 µM | AC50 (Mu-type opioid receptor): > 30 µM

C[C@@H](CN1CC(=O)NC(=O)C1)N1CC(=O)NC(=O)C1 [DEXRAZOXANE]
AC50 [1]: > 30 µM | AC50 (D(1A) dopamine receptor): > 30 µM | AC50 (D(3) dopamine receptor): > 30 µM | AC50 [2]: > 30 µM | AC50 (Mu-type opioid receptor): > 30 µM

O=P1(N(CCCl)CCCl)NCCCO1 (stereo unspecified) [CYCLOPHOSPHAMIDE ANHYDROUS]
AC50 [1]: > 30 µM | AC50 (D(1A) dopamine receptor): > 30 µM | AC50 (D(3) dopamine receptor): > 30 µM | AC50 [2]: > 30 µM | AC50 (Mu-type opioid receptor): > 30 µM

CN1CCN(C(c2ccccc2)c2ccc(Cl)cc2)CC1 (stereo unspecified) [CHLORCYCLIZINE]
AC50 [1]: 4.86 µM | AC50 (D(1A) dopamine receptor): 6.89 µM | AC50 (D(3) dopamine receptor): 0.449 µM | AC50 [2]: > 30 µM | AC50 (Mu-type opioid receptor): > 30 µM
